Assay results from PMC6792352, “Limited Chemical Structural Diversity Found to Modulate Thyroid Hormone Receptor in the Tox21 Chemical Library” (Environmental Health Perspectives, 2019).
Counter-ions that a name gives are not always drawn. Positions of bridges follow the written chain, without caps; N, C: chain ends. Non-standard residues stand in square brackets, D forms with d. Residues, ends and D or L forms follow the SMILES beside them. *: point of attachment. X3 = CC[C@H](C)CCCCC(=O)*; Dab = NCC[C@H](N)C(=O)O

Experiment: in vitro
Details: rat, gh3-tre-luc cells

| Structure (SMILES) | CC50 at 24 h (AC50 (uM) modified / 1000) [µM] | further results |
| --- | --- | --- |
| O=C(CCl)c1ccc(Oc2ccc(C(=O)CCl)cc2)cc1 [Clofenoxyde] | – | CC50 at 24 h (AC50 (uM) modified / 1000, Tox21_110001=Tox21_111802, viability, 1 nM T3 present, 24 h): > 50 µM |
| Clc1ccccc1-c1nnc(-c2ccccc2Cl)nn1 [Clofentezine] | > 90 | – |
| CCN(CC)CCNC(=O)COc1ccc(Cl)cc1 [Clofexamide] | > 50 | – |
| CCOC(=O)C(C)(C)Oc1ccc(Cl)cc1 [Clofibrate] | > 90 | – |
| CC(C)(Oc1ccc(Cl)cc1)C(=O)O [Clofibric acid] | > 50 | – |
| CCCCCCC[N+](CC)(CC)CCCCc1ccc(Cl)cc1 [Clofilium tosylate] | > 20 | – |
| O=C(Nc1ccc(Cl)cc1)Nc1ccc(Cl)c(C(F)(F)F)c1 [Cloflucarban] | 6.22 | – |
| CCOC(=O)NC(C)(C)Cc1ccc(Cl)cc1 [Cloforex] | – | CC50 at 24 h (AC50 (uM) modified / 1000, Tox21_110001=Tox21_113271, viability, 1 nM T3 present, 24 h): > 50 µM |
| CC1(C)CON(Cc2ccccc2Cl)C1=O [Clomazone] | > 90 | – |
| COc1ccc2c(C(=O)c3ccc(Cl)cc3)c(C)n(CC(=O)O)c2c1 [Clometacine] | – | CC50 at 24 h (AC50 (uM) modified / 1000, Tox21_110001=Tox21_113309, viability, 1 nM T3 present, 24 h): > 50 µM |
| Cc1ncsc1CCCl [Clomethiazole] | – | CC50 at 24 h (AC50 (uM) modified / 1000, Tox21_110001=Tox21_110931, viability, 1 nM T3 present, 24 h): > 50 µM |
| CN(C)CCCN1c2ccccc2CCc2ccc(Cl)cc21 [Clomipramine hydrochloride] | 7.67 | – |
| Clc1cccc(Cl)c1N=C1NCCN1 [Clonidine hydrochloride] | > 90 | – |
| C[C@@H]1CCC[C@H](C)N1NC(=O)c1ccc(Cl)c(S(N)(=O)=O)c1 [Clopamide] | > 20 | – |
| Clc1ccc(C(OCCN2CCCCC2)c2ccccc2)cc1 (stereo not shown) [Cloperastine hydrochloride] | 9.53 | – |
| COC(=O)[C@H](c1ccccc1Cl)N1CCc2sccc2C1 [Clopidogrel hydrogen sulfate] | > 50 | – |
| Cc1nc(C)c(Cl)c(O)c1Cl [Clopidol] | > 50 | – |
| Cc1cc(CC(=O)O)c(C)n1-c1ccc(Cl)cc1 [Clopirac] | > 50 | – |
| CC(Oc1cccc(Cl)c1)C(=O)O (stereo not shown) [Cloprop] | > 90 | – |
| O=C(O)CCC/C=C\C[C@H]1[C@H](/C=C/[C@H](O)COc2cccc(Cl)c2)[C@@H](O)C[C@H]1O [Cloprostenol sodium] | > 50 | – |
| O=C(O)c1nc(Cl)ccc1Cl [Clopyralid] | > 90 | – |
| CCCCCC(C)OC(=O)COc1ccc(Cl)c2cccnc12 (stereo not shown) [Cloquintocet-mexyl] | 71.4 | – |
| C#CCN(C)CCCOc1ccc(Cl)cc1Cl [Clorgyline hydrochloride] | 28.1 | – |
| CCOC(=O)COc1ccc2c(C)c(CCN(CC)CC)c(=O)oc2c1Cl [Cloricromen hydrochloride] | 31.2 | – |

| Structure (SMILES) | CC50 at 24 h (AC50 (uM) modified / 1000) [µM] | further results |
| --- | --- | --- |
| O=C1c2ccccc2C(=O)C1c1ccc(Cl)cc1 [Clorindione] | > 50 | – |
| Oc1ccc(Cl)cc1Cc1ccccc1 [Clorophene] | – | CC50 at 24 h (AC50 (uM) modified / 1000, Tox21_110001=Tox21_111146, viability, 1 nM T3 present, 24 h): 23.9 µM; CC50 at 24 h (AC50 (uM) modified / 1000, Tox21_110001=Tox21_202985, viability, 1 nM T3 present, 24 h): 43.2 µM; CC50 at 24 h (AC50 (uM) modified / 1000, Tox21_110001=Tox21_400046, viability, 1 nM T3 present, 24 h): 61.9 µM |
| CC(C)NCC(O)c1ccccc1Cl (stereo not shown) [Clorprenaline hydrochloride] | > 50 | – |
| Cc1cc(C(C#N)c2ccc(Cl)cc2)c(Cl)cc1NC(=O)c1cc(I)cc(I)c1O (stereo not shown) [Closantel] | 25 | – |
| C[C@]12CC[C@H]3[C@@H](CCC4=C(Cl)C(=O)CC[C@@]43C)[C@@H]1CC[C@@H]2O [Clostebol] | – | CC50 at 24 h (AC50 (uM) modified / 1000, Tox21_110001=Tox21_111857, viability, 1 nM T3 present, 24 h): > 50 µM |
| CN/C(=N\[N+](=O)[O-])NCc1cnc(Cl)s1 [Clothianidin] | > 90 | – |
| CN1CCN(C2=Nc3ccccc3Sc3ccc(Cl)cc32)CC1 [Clothiapine] | 15.2 | – |
| Cc1onc(-c2ccccc2Cl)c1C(=O)N[C@@H]1C(=O)N2[C@@H]1SC(C)(C)[C@@H]2C(=O)O [Cloxacillin sodium] | > 20 | – |
| Oc1ccc(Cl)c2cccnc12 [Cloxyquin] | 7.71 | – |
| CN1CCN(C2=Nc3cc(Cl)ccc3Nc3ccccc32)CC1 [Clozapine] | 15.9 | – |
| Cc1ncc(C[n+]2csc(CCO[P@](=O)(O)OP(=O)(O)O)c2C)c(N)n1 [Cocarboxylase chloride] | > 50 | – |
| Cc1c(C(=O)O)c(O)cc2c1C(=O)c1c(O)c(C3OC(CO)C(O)C(O)C3O)c(O)c(O)c1C2=O (stereo not shown) [Cochineal] | 29.1 | – |
| COc1ccc2c3c1O[C@H]1[C@@H](O)C=C[C@H]4[C@@H](C2)N(C)CC[C@@]341 [Codeine hydrochloride] | > 90 | – |
| C/C=C/C=C/CCCCCCCO [Codlelure] | 79.4 | – |
| CC(C)(COP(=O)(O)OP(=O)(O)OC[C@H]1O[C@@H](n2cnc3c(N)ncnc32)[C@H](O)[C@@H]1OP(=O)(O)O)C(O)C(=O)NCCC(=O)NCCS (stereo partly shown) [Coenzyme A trilithium dihydrate] | > 50 | – |
| CC(C)CCC[C@@H](C)[C@H]1CC(=O)C2=C3CC[C@H]4C[C@@H](O)CC[C@]4(C)[C@H]3CC[C@@]21C [Colestolone] | > 50 | – |
| CCCCCCCCCCCCCCCC(=O)OC[C@H](COP(=O)([O-])OCC[N+](C)(C)C)OC(=O)CCCCCCCCCCCCCCC [Colfosceril palmitate] | > 50 | – |
| CC[C@H](C)CCCCC(=O)N[C@@H](CCN)C(=O)N[C@H](C(=O)N[C@@H](CCN)C(=O)N[C@H]1CCNC(=O)[C@H]([C@@H](C)O)NC(=O)[C@H](CCN)NC(=O)[C@H](CCN)NC(=O)[C@H](CC(C)C)NC(=O)[C@@H](CC(C)C)NC(=O)[C@H](CCN)NC1=O)[C@@H](C)O [Colistin A] (X3-[Dab]T[Dab][Dab][Dab][dL]L[Dab][Dab]T; lactam 4-C) | > 50 | – |
| C[C@H]1[C@H]2CC[C@H]3[C@@H]4CC=C5C[C@@H](N(C)C)CC[C@]5(C)[C@H]4CC[C@]23CN1C [Conessine] | > 50 | – |
| O=C1CC2CC1C1CCCC21 (stereo not shown) [Corodane] | > 90 | – |
| C[C@]12C[C@H](O)[C@H]3[C@@H](CCC4=CC(=O)CC[C@@]43C)[C@@H]1CC[C@@H]2C(=O)CO [Corticosterone] | > 90 | – |
| CC(=O)OCC(=O)[C@@]1(O)CC[C@H]2[C@@H]3CCC4=CC(=O)CC[C@]4(C)[C@H]3C(=O)C[C@@]21C [Cortisone acetate] | > 50 | – |
| C[C@]12CCC(=O)C=C1CC[C@@H]1[C@@H]2C(=O)C[C@@]2(C)[C@H]1CC[C@]2(O)C(=O)CO [Cortisone] | > 90 | – |
| C[C@]12CCC(=O)C=C1CC[C@@H]1[C@@H]2CC[C@@]2(C)[C@H]1CC[C@]2(O)C(=O)CO [Cortodoxone] | > 50 | – |

| Structure (SMILES) | CC50 at 24 h (AC50 (uM) modified / 1000) [µM] | further results |
| --- | --- | --- |
| CN1C(=O)CC[C@H]1c1cccnc1 [Cotinine] | > 90 | – |
| CC(=O)CC(c1ccc(Cl)cc1)c1c(O)c2ccccc2oc1=O (stereo not shown) [Coumachlor] | – | CC50 at 24 h (AC50 (uM) modified / 1000, Tox21_110001=Tox21_301860, viability, 1 nM T3 present, 24 h): > 100 µM |
| CCOP(=S)(OCC)Oc1ccc2c(C)c(Cl)c(=O)oc2c1 [Coumaphos] | – | CC50 at 24 h (AC50 (uM) modified / 1000, Tox21_110001=Tox21_111290, viability, 1 nM T3 present, 24 h): > 50 µM; CC50 at 24 h (AC50 (uM) modified / 1000, Tox21_110001=Tox21_201841, viability, 1 nM T3 present, 24 h): > 90 µM |
| O=c1ccc2ccccc2o1 [Coumarin] | > 90 | – |
| O=c1oc2ccccc2c(O)c1C1CCCc2ccccc21 (stereo not shown) [Coumatetralyl] | > 90 | – |
| O=c1oc2cc(O)ccc2c2oc3cc(O)ccc3c12 [Coumestrol] | > 90 | – |
| CN1CC(=O)NC1=N [Creatinine] | > 50 | – |
| CC(/C=C/C=C(\C)C(=O)O[C@@H]1O[C@H](CO[C@@H]2O[C@H](CO)[C@@H](O)[C@H](O)[C@H]2O)[C@@H](O)[C@H](O)[C@H]1O)=C\C=C\C=C(C)\C=C\C=C(/C)C(=O)O[C@@H]1O[C@H](CO[C@@H]2O[C@H](CO)[C@@H](O)[C@H](O)[C@H]2O)[C@@H](O)[C@H](O)[C@H]1O [Crocin] | > 50 | – |
| O=C(O)c1cc(=O)c2c(OCC(O)COc3cccc4oc(C(=O)O)cc(=O)c34)cccc2o1 [Cromolyn sodium] | > 50 | – |
| C/C=C/C=O [Crotonaldehyde] | > 90 | – |
| C/C=C/C=N/NC(=O)c1ccncc1 [Crotoniazide] | > 50 | – |
| CNP(=O)(OC)Oc1ccc(C(C)(C)C)cc1Cl (stereo not shown) [Crufomate] | – | CC50 at 24 h (AC50 (uM) modified / 1000, Tox21_110001=Tox21_302262, viability, 1 nM T3 present, 24 h): > 90 µM |
| CN(C)c1ccc(C2(c3ccc(N(C)C)cc3)OC(=O)c3cc(N(C)C)ccc32)cc1 [Crystal Violet lactone] | > 90 | – |
| CC(C)(OO)c1ccccc1 [Cumene hydroperoxide] | 79.6 | – |
| CC(C)c1ccccc1 [Cumene] | > 100 | – |
| O=NN(O)c1ccccc1 [Cupferron] | – | CC50 at 24 h (AC50 (uM) modified / 1000, Tox21_110001=Tox21_201493, viability, 1 nM T3 present, 24 h): > 90 µM |
| N#CCC(=O)NN [Cyacetacide] | > 50 | – |
| N#CNC#N [Cyanamide,cyano-,sodium salt] | – | CC50 at 24 h (AC50 (uM) modified / 1000, Tox21_110001=Tox21_202811, viability, 1 nM T3 present, 24 h): > 90 µM |
| CCNc1nc(Cl)nc(NC(C)(C)C#N)n1 [Cyanazine] | – | CC50 at 24 h (AC50 (uM) modified / 1000, Tox21_110001=Tox21_201619, viability, 1 nM T3 present, 24 h): > 90 µM |
| N#CCC(=O)O [Cyanoacetic acid] | > 90 | – |
| N#CNC(=N)N [Cyanoguanidine] | > 90 | – |
| Cc1cc(C(C)(C)C)c(O)c(C)c1Cn1c(=O)n(Cc2c(C)cc(C(C)(C)C)c(O)c2C)c(=O)n(Cc2c(C)cc(C(C)(C)C)c(O)c2C)c1=O [Cyanox CY 1790] | > 90 | – |
